Results from PMC10731658 (Chemical Research in Toxicology, 2023).

Tests used:
[1] = system: HepG2 cells; assay: Intracellular RONS detection with DCFH-DA fluorescent probe; assay type: cell-based, human; details: IC50 concentration
Procedure: (§1) Two different fluorescent dyes, i.e., 2,7-dichlorodihydrofluorescein diacetate (DCFH-DA, Cayman Chemicals Company, Ann Arbor, MI) and dihydroethidium (DHE, Sigma-Aldrich, St. Louis, MO) were utilized for the determination of intracellular levels of RONS after 1, 4, and 24 h of incubation with tested oxime reactivators or TBHP (positive control). Cells incubated with oxime-free DMEM represented untreated control. After the incubation, the experimental medium was removed and replaced with a solution of DCFH-DA or DHE at concentrations of 20 and 5 μmol/L, respectively. The cells were subsequently incubated at 37 °C in a CO2 incubator for 45 min. Afterward, the fluorescence intensity of each well was measured using a Spark multimode microplate reader at an excitation wavelength of 485 nm for DCFH-DA or 528 nm for the DHE probe and an emission wavelength of 535 or 590 nm, respectively. Each experiment was carried out in triplicate and repeated three independent times.
(§2) The toxicological indices IC50 were calculated from control-subtracted triplicates using nonlinear regression (four parameters) using GraphPad Prism 9 software version 9.3.0 (GraphPad Software Inc., San Diego, CA). One-way analysis of variance (ANOVA) followed by Dunnetʼs multiple comparison test was used for RONS, MDA, NP-SH, and NP-SS-NP statistical analysis by GraphPad Prism 9 software, version 9.3.0. Data are expressed as means ± standard deviation (SD) of three independent measurements (n = 3). Significant differences between oxime-treated and untreated control groups (p ≤ 0.05) were marked by an asterisk (*).

[2] = system: HepG2 cells; assay: Intracellular RONS detection with DHE fluorescent probe; assay type: cell-based, human; details: IC50 concentration
Procedure: as §1, §2

[3] = system: HepG2 cells; assay: Total intracellular MDA by LC-MS/MS; assay type: cell-based, human; details: IC50 concentration
[4] = system: HepG2 cells; assay: Intracellular nonprotein thiols (NP-SH) by HPLC-UV; assay type: cell-based, human; details: 24 h, IC50 concentration
Procedure: The culture medium was removed from a 25 cm^2 culture flask on the day of the experiment, and cells were washed twice with 3 mL of phosphate-buffered saline (PBS; GE Healthcare Life Sciences, South Logan, UT). Subsequently, 3 mL of a plain DMEM medium (negative control) and a DMEM medium containing TBHP (positive control) or individual oximes were added to each flask, and cells were incubated for 1, 4, and 24 h. The concentration of individual oxime and TBHP in the DMEM medium corresponded to the IC50 value. After incubation, the experimental medium was removed, and cells were washed with 3 mL of PBS and harvested by scraping. The resulting suspension was centrifuged at 220g and 21 °C for 5 min (Universal 320R centrifuge, Hettich, Tuttlingen, Germany). The supernatant was removed and dried cell pellets were stored at −80 °C. Each experiment was carried out in three independent replicates.
The cell pellets were thawed at room temperature, resuspended in 500 μL of ultrapure water (Millipore Purification System, Merck, Millipore, Darmstadt, Germany), and sonicated for 2 min (2 s cycle, amplitude 20%) in a Q500 homogenizer (QSONICA Sonicators, Newton). Then, the homogenate was divided into three parts: 250 μL for the determination of malondialdehyde (MDA), 100 μL for each determination of nonprotein thiols (NP-SH) and disulfides (NP-SS-NP), and 10 μL for the Bradford protein assay.
The HepG2 cell homogenate obtained, as described in Section 2.6, was processed for the determination of intracellular NP-SH and NP-SS-NP, according to Muckova et al.[11] The samples were analyzed using the HPLC system described above equipped with an SPD 20-AV Prominence UV/vis detector. The analysis was carried out on a Phenomenex LUNA C18 column (150 mm × 3 mm, 3 μm, 100 Å) protected with a Security Cartridge (4 mm × 2 mm, Phenomenex, Torrance) at 30 °C and a constant flow rate of 0.330 mL/using the mobile phase consisting of 0.9% aqueous FA (A) and ACN (B) under gradient conditions: 0–1 min 12% B, 1.1–2 min 12–55% B, 2–7 min 55% B, 7.1 min 55% B, and 7.1–10 min 12% B. The detector was set at 326 nm and the sample injection volume was 20 μL.

[5] = reference not given; cited from earlier work
[6] = Colorimetric MTT cell viability assay, 24 h; details: human, HepG2 cells, IC50 (cytotoxicity, MTT assay), 24 h incubation
[7] = system: HepG2 cells; assay: Colorimetric MTT cell viability assay, 24 h; details: read-out: IC50 (cytotoxicity, MTT assay), 24 h incubation

Compound	increase of RONS (DCFH-DA probe) vs negative control ([1]; 1 h incubation)	increase of RONS (DCFH-DA probe) vs negative control ([1]; 4 h incubation)	increase of RONS (DCFH-DA probe) vs negative control ([1]; 24 h incubation)	increase of RONS (DHE probe) vs negative control ([2]; 4 h incubation)	increase of RONS (DHE probe) vs negative control ([2]; 24 h incubation)	increase of MDA levels vs untreated control ([3]; 4 h incubation)	increase of MDA levels vs untreated control ([3]; 24 h exposure)	decrease in NP-SH levels vs untreated control [4]	log P [5]	IC50 at 24 h [6]	IC50 [7]
O/N=C/c1cc[n+](CCCC[n+]2ccc(/C=N/O)cc2)cc1 [K074, 1,1′-(butane-1,4-diyl)bis(4((hydroxyimino)methyl)pyridine-1-ium) dibromide]	171%	244%	117%	33.4%	42.8%	23.6%	36.1%	11.6%	−1.74	~27 mM	27.2 mM
NC(=O)c1cc[n+](CCCC[n+]2ccc(C=NO)cc2)cc1.[Br-].[Br-] [K048, 4-carbamoyl-1-(4-(4-((hydroxyimino)methyl)pyridin-1-ium-1-yl)butyl)pyridin-1-ium dibromide]	146%	193%	115%	25.8%	–	17.2%	35.4%	11.4%	−2.61	~30 mM	30.6 mM
